Source: patent publication US7250157B2, “Dermatological compositions and methods” (Applied Genetics Incorporated Dermatics, priority 1996, dated 2007)
Where two headings read alike, the source gives them in different places.

What was measured:
[1] = test system: Cloudman S91 mouse melanoma cell line; assay: Trypsinization detachment time of S91 cells; format: cell-based
Description: (§1) Following this microscopic examination, cells were detached from dishes by trypsin. The time required for detachment by trypsin was recorded as an additional indicator of the phenotypic effects of test compounds. For each treatment, a subsample of cells was counted to determine the effects of treatment compounds on cellular proliferation. The remainder of cells were used for determination of melanin content. Melanin was extracted from cells by vortexing for 15 min in 1N NaOH. Standards were prepared by dissolving melanin (Sigma) in 1 N NaOH (Eller, et al., 1996). Absorbance of standards and samples was measured at 475 nm. Melanin was expressed as pg melanin/cell.

[2] = test system: Cloudman S91 mouse melanoma cell line; assay: Microscopic morphology (differentiation) of S91 cells; format: cell-based
Description: (§2) The Cloudman S91 mouse melanoma cell line was obtained from American Type Culture Collection (ATCC). Cells were cultured in Dulbecco's Modified Eagles Medium (DMEM) containing 10% calf serum, 2 mM L-glutamine, 10 U Penicillin/ml and 10 ug Streptomycin/ml according to a previously published protocol (Eller, et al., Proc. Natl. Acad. Sci. 93:1087-92. 1996). For testing propylene glycol and analogues for induction of melanogenesis, S91 cells were plated at 10^5 cells/35 mm dish in 10% calf serum. One day after plating, media was removed and replaced with media containing 2% calf serum and test compounds (Eller, et al., 1996). Cells were cultured for 6 days at 37° C. in 5% CO2 in a humidified incubator. Following this treatment period, cells were examined microscopically and the portion of dedifferentiated and differentiated cells was estimated. Previous studies have shown that dedifferentiated S91 cells have a rounded, spindly appearance while differentiated S91 cells have a flattened, cuboidal, multipolar and dendritic appearance (Orlow, et al., Exp. Cell Res. 191:209-218, 1990).

[3] = test system: Cloudman S91 mouse melanoma cell line; assay: Cell count (proliferation, toxicity) of treated S91 cells; format: cell-based
Description: as §2, §1

[4] = test system: Cloudman S91 mouse melanoma cell line; assay: Melanin content of S91 cells after treatment with test compound; format: cell-based; details: for melanogenesis in S91 cells (in words): PKC inhibitors
Description: The Cloudman S91 mouse melanoma cell line was obtained from American Type Culture Collection (ATCC). […] For testing propylene glycol and analogues for induction of melanogenesis, S91 cells were plated at 10^5 cells/35 mm dish in 10% calf serum. […] Cells were cultured for 6 days at 37° C. in 5% CO2 in a humidified incubator. Following this treatment period, cells were examined microscopically and the portion of dedifferentiated and differentiated cells was estimated.
Following this microscopic examination, cells were detached from dishes by trypsin. The time required for detachment by trypsin was recorded as an additional indicator of the phenotypic effects of test compounds. For each treatment, a subsample of cells was counted to determine the effects of treatment compounds on cellular proliferation. The remainder of cells were used for determination of melanin content. […] Absorbance of standards and samples was measured at 475 nm. Melanin was expressed as pg melanin/cell.

[5] = test system: American short-haired guinea pigs; assay: Topical melanogenesis (pigmentation rating) in guinea pigs; format: in vivo, guinea pig; parameters: Pigmentation Rating / Pigmentation Rating Background Corrected: scale not given here; details: for relative melanogenesis rating (mean ±SE), scale 0-4: 25 μl twice per day for 5 days, rated two weeks after
Description: Compounds were tested for melanogenic activity in vivo by application to American short-haired guinea pigs. Treatment sites were created by removal of fur using Nair® brand depilatory. In the Table, the numbers presented are the relative melanogenesis rating (mean ±SE), and are arranged according to the relative location on the animal, with the head being to the left and the tail being to the right. Propylene glycol (PG=13.6M), 2,3-butanediol (2,3-BD=10.95M), and 1,2-cis-cyclopentanediol (1,2-cs-CPD=10.7M) were applied as full strength solutions. 3,3-dimethyl-1,2-butanediol (3,3-M-1,2-BD) was applied as a 4M solution dissolved in ethanol. Two weeks following cessation of treatments, the degree of pigmentation was subjectively rated according to the following scale:
In order to minimize the effects of dimunition of response from head to tails of animals, all future experiments were done using only treatment spots located towards the tails of animals (c and d in Table 7). Deemed as additionally beneficial, in this area of the animal differences of responsiveness to strong and weak inducers of pigmentation, as deduced from cell culture, were greatest. […] Pigmentation ratings were corrected for background (control treatment spots), normalized to 1M to account for the different amounts of each agent applied, and then normalized to results for 1,2-PG (Table 8). […] It is anticipated that further improvements in formulation will additionally improve responsiveness to 5-NBene-2,2-DM and other compounds in this invention.
In FIG. 5, a, b, c and d indicate treatment spots that transverse the anterior-posterior axis along the backs of guinea pigs.

[6] = range of concentrations up to a toxic dose
[7] = No Penetration Enhancer, concentrations as E85

## CC(O)CCO (stereo not drawn) [BD-1,3, 1,3-butanediol]
[1]; 50 mM
  Trypsinization Detachment Time: 3 min
[1]; 150 mM
  Trypsinization Detachment Time: 6 min
[2]; 50 mM
  Morphology Flattened Cuboidal: 75%
  Morphology Rounded Spindly: 25%
[2]; 150 mM
  Morphology Flattened Cuboidal: 100%
[3]; 50 mM
  Cells (×10^6): 0.064 ×10^6
[3]; 150 mM
  Cells (×10^6): 0.048 ×10^6
  reduction of cell numbers: one-third
[4]; 50 mM
  pg Melanin/Cell: 15.5 pg Melanin/Cell
  ug Melanin: 0.99 µg
[4]; 150 mM
  pg Melanin/Cell: 18.1 pg Melanin/Cell
  ug Melanin: 0.87 µg

## OCCCO [PG-1,3, 1,3-propanediol]
[1]; 50 mM
  Trypsinization Detachment Time: 3 min
[1]; 150 mM
  Trypsinization Detachment Time: 6 min
[2]; 50 mM
  Morphology Flattened Cuboidal: 25%
  Morphology Rounded Spindly: 75%
[2]; 150 mM
  Morphology Flattened Cuboidal: 50%
  Morphology Rounded Spindly: 50%
[3]; 50 mM
  Cells (×10^6): 0.064 ×10^6
[3]; 150 mM
  Cells (×10^6): 0.044 ×10^6
  reduction of cell numbers: one-third
[4]; 50 mM
  pg Melanin/Cell: 20.4 pg Melanin/Cell
  ug Melanin: 1.31 µg
[4]; 150 mM
  pg Melanin/Cell: 23.6 pg Melanin/Cell
  ug Melanin: 1.04 µg

## CCCCCCCCCCCCN1CCCCCC1=O [Azone®]
[4]; [6]
  melanogenesis in S91 cells (≧2-fold increase = significant): did not induce significant (≧2-fold increase) melanogenesis

## O=C1O[C@H]([C@@H](O)CO)C(O)=C1O [ascorbic acid]
[4]; [6]
  melanogenesis in S91 cells (≧2-fold increase = significant): did not induce significant (≧2-fold increase) melanogenesis

## CCCC[N+](CCCC)(CCCC)CCCC.[Cl-] [tetrabutylammonium chloride]
[4]
  melanogenesis in S91 cells (≧2-fold increase = significant): did not induce significant (≧2-fold increase) melanogenesis

## CC(CO)CO [2-M-1,3-PG, 2-Methyl-1,3-Propanediol]
[5]; [7]
  Pigmentation Rating Normalized to 1,2-PG: 2.9 ± 0.4
  Pigmentation Rating Normalized to 1M: 0.044 ± 0.006
[5]; No Penetration Enhancer, corrected for Nair control, concentrations as E85
  Pigmentation Rating Background Corrected: 0.50 ± 0.07
[5]; No Penetration Enhancer, sites c and d, 13.61M 1,2-PG, 11.0M 2,3-M-2,3-BD, 11.3M 2-M-1,3-PG, 8.7M 1,2-cs-CPD, 4.0M 3,3-M-1,2-BD
  Pigmentation Rating: 0.58 ± 0.08
[5]; same relative body position
  melanogenesis in guinea pigs (in words): only slightly better melanogenic agents than propylene glycol
[5]; site a (head), PG 13.6M, 2,3-BD 10.95M, 1,2-cs-CPD 10.7M full strength, 3,3-M-1,2-BD 4M in ethanol
  relative melanogenesis rating (mean ±SE), scale 0-4: 1.25 ± 0.52
[5]; site c, full strength, 3,3-M-1,2-BD 4M in ethanol
  relative melanogenesis rating (mean ±SE), scale 0-4: 0.58 ± 0.08^2
[4]
  Concentration Required for ≧2-fold Melanin Induction in S91 Cells: 50000 µM

## C[C@]12CC[C@@H]3c4ccc(O)cc4CC[C@H]3[C@@H]1CC[C@@H]2O [β-Estradiol, β-estradiol, reference compound]
[4]
  Concentration Required for ≧2-fold Melanin Induction in S91 Cells: 500 µM

## CCO [ETOH, Ethanol]
[1]; 1.0% (170 mM)
  Trypsinization Detachment Time: 3 min
[1]; 2.0% (340 mM)
  Trypsinization Detachment Time: 3 min
[1]; 5.0% (850 mM)
  Trypsinization Detachment Time: 3 min
[2]; 1.0% (170 mM)
  Morphology Rounded Spindly: 100%
[2]; 2.0% (340 mM)
  Morphology Rounded Spindly: 100%
[2]; 5.0% (850 mM)
  Morphology Rounded Spindly: 100%
[3]; 340 mM
  effect on cells: no effect on cells
[3]; 850 mM
  toxicity (low cell survival): toxic
[3]; 1.0% (170 mM)
  Cells (×10^6): 0.104 ×10^6
[3]; 2.0% (340 mM)
  Cells (×10^6): 0.100 ×10^6
[3]; 5.0% (850 mM)
  Cells (×10^6): 0.032 ×10^6
[4]; 1.0% (170 mM)
  pg Melanin/Cell: 11.0 pg Melanin/Cell
  ug Melanin: 1.14 µg
[4]; 2.0% (340 mM)
  pg Melanin/Cell: 12.5 pg Melanin/Cell
  ug Melanin: 1.25 µg
[4]; 5.0% (850 mM)
  pg Melanin/Cell: 5.3 pg Melanin/Cell
  ug Melanin: 0.17 µg
[4]; concentrations tested in Example 2
  induction of melanogenesis (in words): did not induce melanogenesis

## O=CC[C@H](O)[C@H](O)CO [2-deoxy-D-ribose]
[4]; [6]
  melanogenesis in S91 cells (≧2-fold increase = significant): did not induce significant (≧2-fold increase) melanogenesis

## OC1CCCC(O)C1 (stereo not drawn) [1,3-cyclohexanediol]
[4]; [6]
  melanogenesis in S91 cells (≧2-fold increase = significant): did not induce significant (≧2-fold increase) melanogenesis

## CC1CNCCN1S(=O)(=O)c1cccc2cnccc12 (stereo not drawn) [H7, 1-[5-isoquinolinyl-sulfonyl]-2-methyl-piperazine, reference compound]
[4]
  effect on melanogenesis induced by propylene glycol in S91 cells: enhanced melanogenesis induced by propylene glycol
  melanogenesis in S91 cells (in words): induced melanogenesis

## OC1OCCOC1O (stereo not drawn) [1,4-Dioxane-2,3-Diol, 1,4-dioxane-2,3-diol]
[4]
  Concentration Required for ≧2-fold Melanin Induction in S91 Cells: 500 µM

## C[C@H](O)CO [PG-S-1,2, (S)-(+)-1,2-Propanediol]
[1]; 50 mM
  Trypsinization Detachment Time: 3 min
[1]; 150 mM
  Trypsinization Detachment Time: 6 min
[2]; 50 mM
  Morphology Flattened Cuboidal: 25%
  Morphology Rounded Spindly: 75%
[2]; 150 mM
  Morphology Flattened Cuboidal: 50%
  Morphology Rounded Spindly: 50%
[3]; 50 mM
  Cells (×10^6): 0.088 ×10^6
[3]; 150 mM
  Cells (×10^6): 0.080 ×10^6
[3]; levels used in this experiment (50 and 150 mM)
  effect on cell proliferation: no reduction of cell proliferation
[4]; 50 mM
  pg Melanin/Cell: 17.1 pg Melanin/Cell
  ug Melanin: 1.51 µg
[4]; 150 mM
  pg Melanin/Cell: 25.5 pg Melanin/Cell
  ug Melanin: 2.04 µg

## O=C1CCCN1 [2-pyrrolidone]
[2]
  morphological differentiation of S91 cells: profound morphological differentiation
[4]; [6]
  melanogenesis in S91 cells (≧2-fold increase = significant): did not induce significant (≧2-fold increase) melanogenesis

## CCCCCCCC/C=C\CCCCCCCC(=O)O [oleic acid]
[4]; [6]
  melanogenesis in S91 cells (≧2-fold increase = significant): did not induce significant (≧2-fold increase) melanogenesis

## CCCCCCCCCCCCC/C=C/[C@@H](O)[C@@H](N)CO [D-sphingosine, reference compound]
[4]
  effect on melanogenesis induced by propylene glycol in S91 cells: enhanced melanogenesis induced by propylene glycol
  melanogenesis in S91 cells (in words): induced melanogenesis
